From patent publication US20200323934A1, “PHARMACEUTICAL COMPOSITION AND FOOD” (Sankyo Holdings Co., Ltd., priority 2016, published 2020)

System: CRE-dependent transcription (PKA/ERK/CREB intracellular signaling)
Test: luciferase reporter assay of CRE-dependent gene transcription activity in plasmid-transfected PC12 cells
Format: cell-based, rat
Method: In order to evaluate the gene transcription activity of each sample, the luciferase reporter assay was performed.
The luciferase assay is used to quantitatively analyze the transcription activity of a test material. In order to activate the transcription, various control sequences present in an upstream promoter of a gene are required.
In this embodiment, a plasmid was used in which a CRE sequence which was a control sequence activated by the PKA/ERK/CREB intracellular signaling and was present in an upstream promoter of a memory, and in which learning-related gene and a gene of a luciferase functioning as a luminescent enzyme were connected to each other.
When the test material activates the CRE-dependent transcription, the luciferase gene present at a downstream side is expressed, and the expression thereof is increased, so that a luciferase protein is increased.
PC12 cells (rat adrenal medulla pheochromocytoma derived cell line) were seeded in 96-well culture dish at a seeding density of 4.0×10^4 cells/well. Subsequently, the plasmid was transfected in the PC12 cell, and the cultivation was performed in a medium to which each of the samples was dripped. As the medium, an α-modified Dulbecco's modified Eagle's medium supplemented with 1% serum (DMEM) was used. […]

COc1ccc(-c2cc(=O)c3c(OC)c(OC)c(OC)c(OC)c3o2)cc1OC [Nobiletin, nobiletin]
concentration at which nobiletin has an enhancing action (in combination with Anredera cordifolia, suggested from ponkan's peel extract assumed to contain 1% nobiletin): ≤ 2 µg/mL
concentration at which nobiletin expresses the luciferase activity (nobiletin solution alone): 2 µg/mL
